Patent US20070026402A1, “Genetic marker of response to atypical antipsychotics and antidepressants methods for use thereof” (priority 2003, published 2007)
“Also recorded” adds a separate entry of the source.

Tests used:
PTSD patients [1] = assay: General Health Questionnaire-28 (GHQ) outcome of paroxetine treatment in PTSD; assay type: in vivo, human; settings: for GHQ total score, baseline vs treatment: 8 weeks
Text: Sixty-five unrelated male Caucasian patients with the diagnosis of PTSD were recruited for study. All subjects were Vietnam combat veterans who had served in the Australian armed forces. None were being treated with psychotropic medication. […] confirmed by all patients exceeding the clinical cut-off score of 94 on the Mississippi Scale for combat-related posttraumatic stress disorder (Zatzick et al., 1997). The validity and reliability of the Mississippi scale ate well established in veterans (Keane et al., 1988). Patients then underwent clinical history taking by a psychiatrist or by a clinical nurse (EP). Demographic data and ethnic background were also obtained. […] The General Health Questionnaire-28 (GHQ) was administered at baseline (0-7 days on paroxetine) and at the end of treatment (8 weeks after commencement on paroxetine). This questionnaire measures four psychopathological factors particularly relevant to PTSD and its comorbid psychiatric conditions: somatic concerns (GHQ1), anxiety/insomnia (GHQ2), social dysfunction (GHQ3) and depression (GHQ4). The GHQ has been widely validated internationally as a means of detecting psychiatric […] sensitive to change (Ormel et al., 1989). The GHQ has utility as a follow-up measure of veteran mental health following exposure to combat (Deahl et al., 1994) and is sensitive to changes in combat-related PTSD symptoms (Ward, 1997). Information coded from the interviews, GHQ and genotyping results were entered into a computer database. Nominal data were analyzed by Yates corrected X^2 test and continuous data, with repeated measures, were analyzed by paired t-test or by analysis of variance. P values≦0.05 were considered statistically significant.

PTSD patients [2] = assay: Discontinuation and adverse events during paroxetine treatment in PTSD; assay type: in vivo, human; settings: for Subjects with adverse events relating to anxiety, insomnia, headache or tremor / Subjects with erectile dysfunction, decreased libido or delayed ejaculation: group that discontinued
Experimental: Sixty-five unrelated male Caucasian patients with the diagnosis of PTSD were recruited for study. All subjects were Vietnam combat veterans who had served in the Australian armed forces. None were being treated with psychotropic medication.
After initial assessment, patients were medically examined and then were started on 20 mg/day of paroxetine for the first two weeks followed by a 40 mg/day dose for the remaining six weeks.
Patient assessments were conducted blind to their DRD2 allelic status. In addition to their standard treatment, patients were monitored twice for adverse events. Drug compliance was checked by pill count. All participants provided written informed consent and were able to terminate treatment without prejudice. However, those terminating participation were asked to provide reasons for their withdrawal. Institutional ethics approval was obtained from the Greenslopes Private Hospital.

PTSD = settings: compared to 32% with placebo; cited from earlier work

With CN1CCN(C2=Nc3cc(Cl)ccc3Nc3ccccc32)CC1 [Clozapine] the “Number of patients exceeding hyperprolactinemia cut-off levels” value (Serum prolactin; Clozapine and Olanzapine patients combined) was 7, the “Hyperprolactinemic patients as share of the sample” value (Serum prolactin; Clozapine and Olanzapine patients combined, sample of 144) was 5% and the “Prolactin levels in A1+ compared to A1− allelic patients” value (Serum prolactin; P=0.04) was “more than two fold higher”.
For Fc1ccc([C@@H]2CCNC[C@H]2COc2ccc3c(c2)OCO3)cc1 [paroxetine], the “GHQ3 (social dysfunction) subscale score over the course of treatment” value (from here on “GHQ3 … over the course of treatment”) (PTSD patients [1]; A1+ allelic subjects) was “significant improvement”, the “GHQ3 … over the course of treatment” value (PTSD patients [1]; A1− allelic subjects) was “no such improvement” and the “GHQ total score, baseline vs treatment” value (PTSD patients [1]; A1− patients) was “no significant improvement; also recorded: did not”. For the same molecule, the “GHQ total score, baseline vs treatment” value (PTSD patients [1]; total 45 patients) was “significant improvement”, the “GHQ1 (somatic concerns) subscale score over the course of treatment” value (PTSD patients [1]; total patient group) was “not significantly reduced” and the “GHQ2 (anxiety/insomnia) subscale score over the course of treatment” value (PTSD patients [1]; total patient group) was “significantly reduced”. For the same molecule, the “GHQ3 … over the course of treatment” value (PTSD patients [1]; total patient group) was “significant improvement”, the “GHQ4 (depression) subscale score during treatment” value (PTSD patients [1]; total patient group) was “significant improvement” and the “Number of patients who discontinued treatment” value (PTSD patients [2]; A1+ (of 26)) was 4. For the same molecule, the “Subjects with adverse events relating to anxiety, insomnia, headache or tremor” value (PTSD patients [2]; A1+) was 2, the “Subjects with erectile dysfunction, decreased libido or delayed ejaculation” value (PTSD patients [2]; A1+) was 2 and the “Number of patients who discontinued treatment” value (PTSD patients [2]; A1− (of 39)) was 16. For the same molecule, the “Subjects with adverse events relating to anxiety, insomnia, headache or tremor” value (PTSD patients [2]; A1−) was 11, the “Subjects with erectile dysfunction, decreased libido or delayed ejaculation” value (PTSD patients [2]; A1−) was 5 and the “Number of patients who discontinued treatment” value (PTSD patients [2]; of the 65 patients who entered the study) was 20.
For CN[C@H]1CC[C@@H](c2ccc(Cl)c(Cl)c2)c2ccccc21 [sertraline], the Responder rate (PTSD) is listed as 53%.
